Experimental findings from patent US8173635B2, “Kinase inhibitors” (Vertex Pharmaceuticals Incorporated, priority 2007, dated 2012) are described below.

Where two headings read alike, the source gives them in different places.

Assay type in all cases: biochemical
Assay [1] has as its target PKC alpha kinase (Homo sapiens, UniProt P17252). Description: PKC alpha kinase inhibition, coupled-enzyme NADH absorbance assay (Ki).
The target of assay [2] is PKC delta kinase (Homo sapiens, UniProt Q05655). Description: PKC delta kinase inhibition, coupled-enzyme NADH absorbance assay (Ki). In a few lines:
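Assay buffer was 100 mM HEPES pH 7.5, 10 mM MgCl2, 25 mM NaCl, 0.1 mM EDTA, 0.01% Brij. Enzyme buffer was equilibrated with compound in DMSO for 10 min at 30 °C. Ki values were derived by non-linear regression of initial rate data.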

For assay [3], the target named is PKC theta kinase (Homo sapiens, UniProt Q04759). Put plainly: PKC theta kinase inhibition, coupled-enzyme NADH absorbance assay (Ki). In a few lines: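 Coupled-enzyme kinase assay following NADH absorbance at 340 nm, in 100 mM HEPES pH 7.5, 10 mM MgCl2, 25 mM NaCl, 0.1 mM EDTA, 0.01% Brij. Compound in DMSO preincubated with enzyme 10 min at 30 °C. Ki from initial rates by non-linear regression.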
Chain of PKC theta kinase (Q04759 whole entry): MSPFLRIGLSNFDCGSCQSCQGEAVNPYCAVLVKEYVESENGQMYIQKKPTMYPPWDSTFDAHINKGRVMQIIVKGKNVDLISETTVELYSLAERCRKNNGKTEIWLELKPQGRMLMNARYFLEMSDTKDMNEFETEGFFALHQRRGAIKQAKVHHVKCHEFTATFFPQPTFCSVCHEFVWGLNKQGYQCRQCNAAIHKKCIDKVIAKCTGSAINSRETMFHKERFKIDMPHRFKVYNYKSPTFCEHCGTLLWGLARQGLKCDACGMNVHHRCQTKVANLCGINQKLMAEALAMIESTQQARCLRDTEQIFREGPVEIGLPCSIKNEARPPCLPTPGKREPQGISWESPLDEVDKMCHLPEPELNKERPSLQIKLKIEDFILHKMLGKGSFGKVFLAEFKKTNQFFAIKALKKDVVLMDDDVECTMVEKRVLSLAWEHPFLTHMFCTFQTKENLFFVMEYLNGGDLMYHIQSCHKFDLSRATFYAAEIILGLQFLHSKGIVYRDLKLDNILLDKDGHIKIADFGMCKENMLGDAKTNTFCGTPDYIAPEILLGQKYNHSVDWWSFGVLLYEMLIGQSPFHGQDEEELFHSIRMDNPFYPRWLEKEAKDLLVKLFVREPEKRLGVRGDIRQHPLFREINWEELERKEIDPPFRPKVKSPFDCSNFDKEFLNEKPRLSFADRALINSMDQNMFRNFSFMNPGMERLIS

[4] abbreviates: 130 μM ATP, 4.5 nM PKC alpha, 30° C., read-out: Ki PKC alpha.
[5] abbreviates: 150 μM ATP, 46 nM PKC delta, 30° C., read-out: Ki PKC delta.
Setting [6] is: 240 μM ATP, 18 nM PKC theta, 30° C., read-out: Ki PKC theta.

Chain of PKC delta kinase (Q05655 whole entry): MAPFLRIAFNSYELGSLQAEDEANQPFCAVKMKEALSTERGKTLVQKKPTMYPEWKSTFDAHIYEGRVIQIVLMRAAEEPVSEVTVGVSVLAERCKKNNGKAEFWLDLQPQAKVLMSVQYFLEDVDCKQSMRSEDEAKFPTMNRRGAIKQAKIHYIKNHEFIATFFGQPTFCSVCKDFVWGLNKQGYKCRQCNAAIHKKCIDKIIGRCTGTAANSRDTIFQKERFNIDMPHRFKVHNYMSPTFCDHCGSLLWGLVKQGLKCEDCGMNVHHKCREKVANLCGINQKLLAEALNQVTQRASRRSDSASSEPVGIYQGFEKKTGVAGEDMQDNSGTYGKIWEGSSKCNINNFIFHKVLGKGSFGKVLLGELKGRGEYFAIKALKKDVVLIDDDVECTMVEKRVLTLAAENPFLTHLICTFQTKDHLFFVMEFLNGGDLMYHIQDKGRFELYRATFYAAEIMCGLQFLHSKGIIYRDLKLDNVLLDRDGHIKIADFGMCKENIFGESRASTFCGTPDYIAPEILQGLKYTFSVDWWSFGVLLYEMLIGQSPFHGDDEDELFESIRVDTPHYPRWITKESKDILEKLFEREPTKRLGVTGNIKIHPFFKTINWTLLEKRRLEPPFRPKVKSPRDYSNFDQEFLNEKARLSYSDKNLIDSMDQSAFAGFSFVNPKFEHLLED

`CCC(C)(CN)c1cc(-c2ccnc3[nH]ncc23)cc(C(F)(F)F)c1` (stereo not drawn) [Compound 139]: the values for the Ki in assay [1] (setting [4]), in assay [2] (setting [5]) and in assay [3] (setting [6]) were below 500 nM, below 500 nM and below 50 nM, respectively.
On to `NCC1(c2cccc(-c3ccnc4[nH]ncc34)c2)CCOCC1` [Compound 157], for which the figures for the Ki in assay [1] (setting [4]), in assay [2] (setting [5]) and in assay [3] (setting [6]) were below 2800 nM, below 2800 nM and below 50 nM, respectively.
For the molecule `CC(C)(C#N)c1cc(N)cc(-c2ccnc3[nH]ncc23)c1` [Compound 13], the Ki was below 2800 nM in assay [1] (setting [4]), below 2800 nM in assay [2] (setting [5]) and below 500 nM in assay [3] (setting [6]).
For `NCC1(c2cccc(-c3ccnc4[nH]ncc34)c2)CCCCC1` [Compound 177], the Ki is below 2800 nM in assay [1] (setting [4]), below 500 nM in assay [2] (setting [5]) and below 50 nM in assay [3] (setting [6]).
Taken in the same sequence, the figures for `CC(C)(C#N)c1cc(NCCN)cc(-c2ccnc3[nH]ncc23)c1` [Compound 17] were above 2800 nM, above 2800 nM and below 500 nM.
For `CCC(CN)c1cccc(-c2ccnc3[nH]ncc23)c1` (stereo not drawn) [Compound 232] the same measures were below 500 nM, below 500 nM and below 50 nM.
For `C=CCc1cc(-c2ccnc3[nH]ncc23)cc(C(C)(C)CC#N)c1` [Compound 217], the Ki is above 1200 nM in assay [1] (setting [4]), above 2000 nM in assay [2] (setting [5]) and below 2800 nM in assay [3] (setting [6]).
In the case of `C=Cc1cc(-c2ccnc3[nH]ncc23)cc(C(C)(C)C#N)c1` [Compound 55], the Ki in assay [1] (setting [4]) was below 2800 nM; in assay [2] (setting [5]), below 2800 nM; in assay [3] (setting [6]), below 500 nM.
With `NCCc1cc(Br)cc(-c2ccnc3[nH]ncc23)c1` [Compound 176], the figures for the Ki in assay [1], in assay [2] and in assay [3] were above 1200 nM, below 2800 nM and below 500 nM, respectively.
In the case of `Cc1cc(-c2ccnc3[nH]ncc23)cc(C2(CN)CNC(=O)O2)c1` (stereo not drawn) [Compound 310], the Ki in assay [1] (setting [4]) is below 2800 nM; in assay [2] (setting [5]), above 1200 nM; in assay [3] (setting [6]), below 50 nM.
As to `COCCC(CN)c1cccc(-c2ccnc3[nH]nc(C(F)(F)F)c23)c1` (stereo not drawn) [Compound 284], the Ki in assay [1] (setting [4]) was below 2800 nM; in assay [2] (setting [5]) it was below 500 nM; in assay [3] (setting [6]), below 50 nM.
For `NCC1(c2cccc(-c3ccnc4[nH]ncc34)c2)COC1` [Compound 233] the same measures were above 1200 nM, below 2800 nM and below 500 nM.
`CC(CN)(CC1CCOCC1)c1cccc(-c2ccnc3[nH]ncc23)c1` (stereo not drawn) [Compound 179]: the values for the Ki in assay [1] (setting [4]), in assay [2] (setting [5]) and in assay [3] (setting [6]) were below 500 nM, below 500 nM and below 50 nM, respectively.
On to `CCc1cc(-c2ccnc3[nH]nc(C(F)(F)F)c23)cc(C2(CN)CCC2)c1` [Compound 272], for which the Ki in assay [1] (setting [4]) is below 500 nM; in assay [2] (setting [5]), below 2800 nM; in assay [3] (setting [6]) it was below 50 nM.
On to `N#CCCc1cc(-c2ccnc3[nH]ncc23)cc(C2(C#N)CC2)c1` [Compound 240], for which the Ki was above 1200 nM in assay [1] (setting [4]), above 2000 nM in assay [2] (setting [5]) and below 500 nM in assay [3] (setting [6]).
Taken in the same sequence, the figures for `CC(C)CC(C)(C#N)c1cccc(-c2ccnc3[nH]ncc23)c1` (stereo not drawn) [Compound 71] were below 2800 nM, below 2800 nM and below 2800 nM.
In the case of `N#CC(CCO)c1cccc(-c2ccnc3[nH]ncc23)c1` (stereo not drawn) [Compound 224], the Ki in assay [1] (setting [4]) is above 1200 nM; in assay [2] (setting [5]), above 2000 nM; in assay [3] (setting [6]), below 500 nM.
Turning to `CCC1(c2cc(C)cc(-c3ccnc4[nH]nc(C(F)(F)F)c34)c2)CNC(=O)O1` (stereo not drawn) [Compound 292], the Ki in assay [1] (setting [4]) was below 500 nM; in assay [2] (setting [5]), above 1200 nM; in assay [3] (setting [6]), below 50 nM.
Take `CCC(C)(CN)c1cc(-c2ccnc3[nH]ncc23)cc(C(F)F)c1` (stereo not drawn) [Compound 162]: the results for the Ki in assay [1] (setting [4]), in assay [2] (setting [5]) and in assay [3] (setting [6]) were below 500 nM, below 500 nM and below 50 nM, respectively.
For the molecule `CCC(C)(CC#N)c1cc(-c2ccnc3[nH]ncc23)cc(C(F)(F)CCC2CCCC2)c1` (stereo not drawn) [Compound 239], the Ki in assay [1] (setting [4]) was above 1200 nM; in assay [2] (setting [5]) it was above 2000 nM; in assay [3] (setting [6]) it was above 700 nM.
For the molecule `Cc1cc(-c2ccnc3[nH]ncc23)cc(C2(C#N)CCC2)c1` [Compound 85], the results for the Ki in assay [1] (setting [4]), in assay [2] (setting [5]) and in assay [3] (setting [6]) were below 2800 nM, above 2800 nM and below 50 nM, respectively.
Taken in the same sequence, the figures for `CC(C)(C#N)c1cc(-c2ccc[nH]2)cc(-c2ccnc3[nH]ncc23)c1` [Compound 59] were above 2800 nM, above 2800 nM and below 500 nM.
Taken in the same sequence, the figures for `NCC1CCc2ccc(-c3ccnc4[nH]ncc34)cc21` (stereo not drawn) [Compound 308] were above 1200 nM, below 500 nM and below 500 nM.
As for `N#CC1(c2cc(CCCO)cc(-c3ccnc4[nH]nc(C(F)(F)F)c34)c2)CC1` [Compound 312], the Ki in assay [1] (setting [4]) was below 500 nM; in assay [2] (setting [5]) it was below 2800 nM; in assay [3] (setting [6]), below 50 nM.
For `FC(F)CC1(c2cccc(-c3ccnc4[nH]ncc34)c2)CNC1` [Compound 191, 4-(3-(3-(2,2-Difluoroethyl)azetidin-3-yl)phenyl)-1H-pyrazolo[3,4-b]pyridine] the same measures were below 500 nM, below 500 nM and below 50 nM.
In the case of `CCc1n[nH]c2nccc(-c3cc(CCCN)cc(C4(C#N)CC4)c3)c12` [Compound 302], the Ki was below 2800 nM in assay [1] (setting [4]), below 500 nM in assay [2] (setting [5]) and below 50 nM in assay [3] (setting [6]).
Taken in the same sequence, the figures for `CCC(C)(CN)c1cc(CCCF)cc(-c2ccnc3[nH]ncc23)c1` (stereo not drawn) [Compound 160] were below 500 nM, below 2800 nM and below 50 nM.
As for `COc1ccc(C2(C#N)CCC2)cc1-c1ccnc2[nH]ncc12` [Compound 221], the Ki in assay [1] (setting [4]) is above 1200 nM; in assay [2] (setting [5]) it was above 2000 nM; in assay [3] (setting [6]), above 700 nM.
For the molecule `COCCCC(C)(CN)c1cccc(-c2ccnc3[nH]ncc23)c1` (stereo not drawn) [Compound 169], the figures for the Ki in assay [1] (setting [4]), in assay [2] (setting [5]) and in assay [3] (setting [6]) were below 2800 nM, below 500 nM and below 50 nM, respectively.
On to `NCC1(c2cc(F)cc(-c3ccnc4[nH]nc(C5CC5)c34)c2)CCC1` [Compound 267], for which the Ki in assay [1] (setting [4]) was below 500 nM; in assay [2] (setting [5]), below 500 nM; in assay [3] (setting [6]), below 50 nM.
For the molecule `CCC(C)(CN)c1cccc(-c2ccnc3[nH]ncc23)c1` (stereo not drawn) [Compound 41], the Ki is below 500 nM in assay [1] (setting [4]), below 50 nM in assay [2] (setting [5]) and below 50 nM in assay [3] (setting [6]).
`Cc1cc(-c2ccnc3[nH]ncc23)cc(C2(CN)CCC2)c1` [Compound 145]: the figures for the Ki in assay [1] (setting [4]), in assay [2] (setting [5]) and in assay [3] (setting [6]) were below 2800 nM, below 2800 nM and below 50 nM, respectively.
As for `CNCc1cc(-c2ccnc3[nH]ncc23)cc(C(C)(C)C#N)c1` [Compound 75], the Ki is above 2800 nM in assay [1] (setting [4]), above 2800 nM in assay [2] (setting [5]) and below 2800 nM in assay [3] (setting [6]).
As for `OCC1(c2cccc(-c3ccnc4[nH]nc(C(F)(F)F)c34)c2)CCC1` [Compound 291], the Ki was above 1200 nM in assay [1] (setting [4]), below 2800 nM in assay [2] (setting [5]) and below 50 nM in assay [3] (setting [6]).
Taken in the same sequence, the figures for `C#CCC(C)(C#N)c1cccc(-c2ccnc3[nH]ncc23)c1` (stereo not drawn) [Compound 91] were below 500 nM, below 2800 nM and below 500 nM.
For `N#CC1(c2cc(-c3ccnc4[nH]ncc34)cc(C(F)(F)F)c2)CCC1` [Compound 92] the same measures were below 2800 nM, above 2800 nM and below 500 nM.
In the case of `C=CC1(c2cccc(-c3ccnc4[nH]ncc34)c2)CCNC1` (stereo not drawn) [Compound 193, 4-(3-(3-Vinylpyrrolidin-3-yl)phenyl)-1H-pyrazolo[3,4-b]pyridine], the Ki in assay [1] (setting [4]), in assay [2] (setting [5]) and in assay [3] (setting [6]) was below 500 nM each time.
For the molecule `NCC1(c2cccc(-c3ccnc4[nH]nc(Cl)c34)c2)CCC1` [Compound 260], the Ki is below 500 nM in assay [1] (setting [4]), below 50 nM in assay [2] (setting [5]) and below 50 nM in assay [3] (setting [6]).
For `CCc1n[nH]c2nccc(-c3cccc(CN)c3)c12` [Compound 270], the Ki in assay [1] (setting [4]) is above 1200 nM; in assay [2] (setting [5]), above 1200 nM; in assay [3] (setting [6]) it was above 700 nM.
Take `N#CC1(c2cc(-c3ccnc4[nH]ncc34)cc(C(F)(F)C3CNC3)c2)CC1` [Compound 328]: the Ki in assay [1] (setting [4]) was below 2800 nM; in assay [2] (setting [5]), below 2800 nM; in assay [3] (setting [6]), below 50 nM.
On to `Cc1cc(-c2ccnc3[nH]nc(C(F)(F)F)c23)cc(C2(CN)CC2)c1` [Compound 282], for which the Ki was below 500 nM in assay [1] (setting [4]), below 500 nM in assay [2] (setting [5]) and below 50 nM in assay [3] (setting [6]).
As to `CCC(C)(C#N)c1cc(-c2ccnc3[nH]ncc23)cc(C(F)(F)CCC2CCCCC2)c1` (stereo not drawn) [Compound 118], the Ki in assay [1] (setting [4]) is above 1200 nM; in assay [2] (setting [5]), above 2000 nM; in assay [3] (setting [6]) it was above 700 nM.
As to `CCc1cc(-c2ccnc3[nH]nc(Cl)c23)cc(C(C)(CC)CN)c1` (stereo not drawn) [Compound 256], the Ki in assay [1] (setting [4]) was below 50 nM; in assay [2] (setting [5]) it was below 500 nM; in assay [3] (setting [6]), below 50 nM.
As to `CC(C)(C#N)c1cc(CCCO)cc(-c2ccnc3[nH]ncc23)c1` [Compound 78], the figures for the Ki in assay [1] (setting [4]), in assay [2] (setting [5]) and in assay [3] (setting [6]) were below 2800 nM, below 2800 nM and below 50 nM, respectively.
Take `NCC1(c2cc(F)cc(-c3ccnc4[nH]nc(Cl)c34)c2)CCOCC1` [Compound 257]: the Ki in assay [1] (setting [4]) was below 500 nM; in assay [2] (setting [5]), below 500 nM; in assay [3] (setting [6]) it was below 50 nM.
As for `NCC1(c2cc(N)cc(-c3ccnc4[nH]ncc34)c2)CCC1` [Compound 190], the Ki is above 1200 nM in assay [1] (setting [4]), above 2000 nM in assay [2] (setting [5]) and below 500 nM in assay [3] (setting [6]).
